Measurements taken from patent US10683273B2, “Compounds as DNA probes, methods and applications thereof” (JAWAHARLAL NEHRU CENTRE FOR ADVANCED SCIENTIFIC RESEARCH, priority 2015, dated 2020).

What was measured:
MCF-7 cells = assay: Photostability assay by confocal fluorescence microscopy; format: cell-based; details: 2 μM
Description: MCF-7 Cells are propagated on 20 mm cover slips in a 6-well plate in DMEM medium supplemented with 10% fetal bovine serum at about 37° C. in a humidified atmosphere containing 5% CO2 till 80% confluency is achieved. Cells are incubated for a duration of about 60 min with probe QCy-DT (resuspended in Mili-Q water) at 2 μM concentration in a humidified CO2 incubator at about 37° C. Following treatment, the photostability of QCy-DT is measured by continuous scanning using OLYMPUS FV1000 confocal fluorescence microscope, under 568 nm line of an Argon ion laser for different time durations of about 10 sec, 120 sec and 300 sec. Olympus Fluoview software is used to quantitatively investigate the intensity of signals of QCy-DT at zero time points and after photo bleaching. The data is plotted with mean and standard error.

[1] = test system: DNA containing 5′-CAATTG-3′ core; assay: Fluorescence enhancement, local variations 5′-X(AATT)Y-3′; format: binding
Description: (§1) All the chemicals, reagents, single-stranded oligos (dA20, dT20, dG20, dC20), self-complementary oligos {d(ATAT)5, (D1)mix, Drew-AT, Calf-Thymus DNA (CT-DNA), (DM1, DM2, DM3, DM4, DM5, DM6 and DM7)}, RNA, were purchased from Sigma-Aldrich. ^1H and ^13C NMR spectra were recorded on a Bruker AV-400 MHz spectrometer with chemical shifts reported as parts per million (ppm) (in DMSO-d6, tetramethylsilane as an internal standard) at 20° C. UV-vis absorption and emission spectra were measured in quartz cuvettes of 1 cm path length. High resolution mass spectra (HRMS) were obtained on Agilent Technologies 6538 UHD Accurate-Mass Q-TOF LC/MS spectrometer. All biophysical studies (UV-vis, fluorescence and Cirular dichroism) are carried out at the concentration 0-5 μM of probe, volume=500 μL, temperature=25° C. and time of incubation=2 minutes. HeLa cells and MCF7 cells used in the biological studies are obtained from “Molecular reproduction, development and genetics lab, Indian institute of science, Bangalore, India”
(§2) Stock solutions of QCy-DT are prepared in double-distilled (dd) water in the order of 10^−3 M and stored at about −10° C. […]
(§3) The UV-vis absorption and emission spectra are recorded on Agilent Technologies Cary series UV-vis-NIR absorbance and Cary eclipse fluorescence spectrophotometers, respectively. […] Absorption is monitored at 260 nm with regular 5° C. intervals. Melting temperatures (Tm) of DNA samples are calculated from the first derivatives of the absorption vs. temperature curves (thermal denaturation or melting curves) obtained by monitoring at 260 nm.
(§4) To understand finer details of the interactions of QCy-DT with local variations around 5′-AATT-3′ sequence in the minor groove of DNA duplex, fluorescence studies are performed in the presence of DNA containing core hexanucleotide sequences such as 5′-X(AATT)Y-3′ (where X=A/T/G/C and Y is complementary base of X) (FIG. 5a). […] Remarkably, enormous fluorescence enhancement is observed in the presence of DNA with 5′-AAATTT-3′ core, which is ˜4-folds higher than the DNA with 5′-AATT-3′ core sequence alone. […]

5′-TAATTA-3′ = assay: as above; format: binding; details: folds lesser than 5′-AATT-3′ sequence
Description: as §1, §2, §3, §4

[2] = test system: DNA containing 5′-GAATTC-3′ core; assay: as above; format: binding
Description: as §1, §2, §3, §4

[3] = Fluorescence quantum yield in absence of DNA; format: physicochemical
Description: Cresyl violet perchlorate in ethanol (ϕ=0.54) is used as the standard for the fluorescence quantum yield calculation using the absorption of the test sample. The emission spectral area is obtained in the 550-800 nm regions. Dilute solutions (10^−6 M) are used to minimize reabsorption effects of the dyes. Quantum yields are determined using the following equation, ϕs=ϕr(Fs/Fr)×(Ar/As)×(ns^2/nr^2)
Where, ϕr and ϕs are the quantum yield of reference and sample respectively, Fr and Fs are the integrated intensities (areas) of standard and sample spectra, nr and ns are the refractive indices of the reference and sample solution, Ar and As are the absorbance intensities of reference and sample respectively.

(A-T)20 = assay: UV-melting (UV-Tm) of DNA duplex with probe; format: binding; details: (A-T)20 with QCy-DT vs duplex alone
Description: (§5) The UV-vis absorption and emission spectra are recorded on Agilent Technologies Cary series UV-vis-NIR absorbance and Cary eclipse fluorescence spectrophotometers, respectively. Thermal denaturation (UV-melting) studies are carried out on Cary 5000 UV-vis-NIR spectrophotometer equipped with Cary temperature controller in the range of 10° C. to 90° C. with a ramp rate of 1° C./min. The variable temperature/wavelength mode is used. Absorption is monitored at 260 nm with regular 5° C. intervals. Melting temperatures (Tm) of DNA samples are calculated from the first derivatives of the absorption vs. temperature curves (thermal denaturation or melting curves) obtained by monitoring at 260 nm.
(§6) To understand the effect of QCy-DT binding to DNA on the thermal stability of DNA, temperature-dependent UV-melting studies (UV-Tm) is performed on different [QCy-DT+DNA] complexes. […] Therefore, the binding affinity, fluorescence quantum yield, and UV-Tm data validated the preferential recognition of AT-rich DNA by QCy-DT probe compared to GC-rich DNA.

(D1)mix = assay: UV-melting (UV-Tm) of DNA duplex with probe; format: binding; details: (D1)mix with QCy-DT vs duplex alone
Description: as §5, §6

C[n+]1c(/C=C/c2ccc(O)c(/C=C/c3sc4ccccc4[n+]3C)c2)sc2ccccc21 [QCy-DT, quinone cyanine-dithiazole]
remainder fluorescence intensity (MCF-7 cells; MCF-7, 120-second argon ion laser excitation at 568 nm): ~80%
fluorescent signal intensity (MCF-7 cells; MCF-7, 300 sec excitation at 568 nm): ~50%
fluorescence enhancement [1]: very weak fluorescence enhancement
fluorescence enhancement with T at X in 5′-X(AATT)Y-3′, lesser than 5′-AATT-3′ (5′-TAATTA-3′): ~1.5 fold
fluorescence enhancement [2]: very weak fluorescence enhancement
Quantum Yield (ΦF) ([3]; Glycerol): ~0.07
Quantum Yield (ΦF) ([3]; Tris-HCl buffer 100 mM, pH 7.4, probe alone): 0.0039
ΔTm ((A-T)20): 6.2 °C
ΔTm ((D1)mix): 2.5 °C
